Measurements from US10660898B2, “Benzimidazole derivatives as PI3 kinase inhibitors” (GLAXOSMITHKLINE LLC, priority 2010, dated 2020).

Columns and labels:
BT549 = assay: Anchorage independent soft agar tumor growth assay; type: cell-based; conditions: BT549 breast carcinoma; PTEN p.V275fs*1, No protein; percent of DMSO-treated control
CHL-1 = assay: Anchorage independent soft agar tumor growth assay; type: cell-based; conditions: CHL-1 skin melanoma, PTEN Wild-type, Protein
Protocol: (§1) Cellular Assays—Cell Growth Inhibition Assay in PTEN Wild-Type or PTEN Deficient Tumor Cell Lines Twenty-two Phosphatase and Tensin Homolog (PTEN) wild-type or PTEN deficient tumor cell lines were cultured generally according to instructions supplied by cell culture supplier American Type Culture Collection, Manassas, Va., with 10% fetal bovine serum at 5% CO2 and 37° C. Cells were seeded into either a T-75 or a T-175 flask 3-4 days prior to 96-well assay plating such that the flasks were approximately 70-80% confluent of the time of harvest. Cells were harvested using 0.25% trypsin-EDTA (Invitrogen #25200056). Trypan Blue exclusion staining was used to determine cell number. Viable cells were plated in clear, flat bottom 96-well plates (BD #353075) under anchorage independent conditions at 2,000-10,000 cells per well depending on the cell line. To generate anchorage independent growth conditions, a 5% agar stock solution in water was made and autoclaved to melt and sterilize. From the 5% agar solution, a 0.6% agar/media+10% fetal bovine serum (FBS) solution was made to generate a bottom agar layer in the plates to prevent cell attachment. Seventy five microliters per well of the 0.6% agar-media solution was added to the plates. After solidification, a cell solution of 266,870 to 1, 334,022 cells (depending on the cell line) in 10 ml of 0.3% agar/media+10% FBS was made and 75 μl of the cell/media/agar suspension was added to the plates. After the cell layer solidified, 50 μl of media+10% FBS was added to the top of the cells. A 0.3% Brij 35 (Sigma B4184) solution in media+10% FBS was added to column 12 as a background subtraction control. The cells were incubated overnight at 5% CO2 and 37° C. The next day one plate of cells was processed at the time of compound addition to quantify the starting number of cells (T=0 or T0). […] Three hundred microliters of media was added to the compound dilutions. Ten microliters per well of the serial dilutions was added to the cells and the plates incubated for 6 days at 5% CO2 and 37° C. […] Following the 6-day incubation, 20 μl of Alamar Blue (Invitrogen # DAL1100) was added to the cells, incubated at 5% CO2 and 37° C. for 6 hours and the plates read on a Spectramax (Gemini EM) at 530 nm (excitation) and 590 nm (emission) with the auto cut-off disabled. For analysis of cell growth inhibition dose response curves, the data was plotted as the percent of the DMSO-treated control samples (DMSO samples set to 100%). […] Values from wells containing 0.3% Brij 35 (under anchorage independent conditions) were subtracted from all samples for background correction.

H4 = assay: Anchorage independent soft agar tumor growth assay; type: cell-based; conditions: H4 CNS glioblastoma, PTEN Loss, No protein
Protocol: as §1

HCC1954 = assay: Anchorage independent soft agar tumor growth assay; type: cell-based; conditions: HCC1954 breast carcinoma, PTEN Wild-type, Protein
Protocol: as §1

U251 = assay: Anchorage independent soft agar tumor growth assay; type: cell-based; conditions: U251 CNS glioblastoma, PTEN p.E242fs*15, No protein
Protocol: as §1

WM-115 = assay: Anchorage independent soft agar tumor growth assay; type: cell-based; conditions: WM-115 skin melanoma, PTEN p.165fs*, No protein
Protocol: as §1

PC-3 = assay: Anchorage independent soft agar tumor growth assay; type: cell-based, human; conditions: PC-3 prostate carcinoma, PTEN Loss, No protein
Protocol: Cellular Assays—Cell Growth Inhibition Assay in PTEN Wild-Type or PTEN Deficient Tumor Cell Lines Twenty-two Phosphatase and Tensin Homolog (PTEN) wild-type or PTEN deficient tumor cell lines were cultured generally according to instructions supplied by cell culture supplier American Type Culture Collection, Manassas, Va., with 10% fetal bovine serum at 5% CO2 and 37° C. Cells were seeded into either a T-75 or a T-175 flask 3-4 days prior to 96-well assay plating such that the flasks were approximately 70-80% confluent of the time of harvest. Cells were harvested using 0.25% trypsin-EDTA (Invitrogen #25200056). Trypan Blue exclusion staining was used to determine cell number. Viable cells were plated in clear, flat bottom 96-well plates (BD #353075) under anchorage independent conditions at 2,000-10,000 cells per well depending on the cell line. To generate anchorage independent growth conditions, a 5% agar stock solution in water was made and autoclaved to melt and sterilize. […] The next day one plate of cells was processed at the time of compound addition to quantify the starting number of cells (T=0 or T0). […] Following the 6-day incubation, 20 μl of Alamar Blue (Invitrogen # DAL1100) was added to the cells, incubated at 5% CO2 and 37° C. for 6 hours and the plates read on a Spectramax (Gemini EM) at 530 nm (excitation) and 590 nm (emission) with the auto cut-off disabled. […]

pAKT (pAKT/tAKT) = assay: Pharmacodynamic effects in PC-3 xenograft tumors (MSD phospho/total AKT); type: in vivo, mouse; conditions: 3 mg/kg or 10 mg/kg, 1, 2, 4, 6, 8, 10, and 24 hours
Protocol: Female nude mice (Charles River Laboratories, Wilmington, Del.; strain CD-1-Foxn1, 6 weeks of age) were injected subcutaneously with 2 million PC-3 (human prostate carcinoma) cells mixed 1:1 with Matrigel in the flank. Tumors were allowed to grow for approximately 5 weeks. […] The tumor was excised. Half of each tumor was immediately processed by Medicon (BD Catalog #340592) in 1 mL Meso-Scale Discovery (MSD) lysis buffer with protease inhibitors (Roche complete protease cocktail, cat #04 693 116 001) and phosphatase inhibitors (Sigma, cat # P2850 and P-5726) for 30-60 seconds and transferred to 1.5 mL Eppendorf tubes. Tubes remained on wet ice until they were centrifuged for 10 minutes at 4° C. at maximum speed in a tabletop refrigerated centrifuge. Tumor lysates were serially diluted in 96-well polypropylene plates on wet ice. Lysates (150 μL) were loaded in row 1; rows 2-12 were loaded with 75 μL of complete Meso Scale Discovery (MSD) lysis buffer (supplied in MSD kit; # […]-3). […] Plates were washed as described above, before the addition of 150 µL of MSD read buffer and read immediately on a 6000 MSD plate reader. […] P/T AKT was calculated as shown: (phospho AKT(Ser473) signal)/[(phospho AKT(Ser473) signal)+(total AKT signal)]. […] Percent inhibition was calculated for each group as follows: 100-[(sample P/T AKT value)/(vehicle P/T AKT value)]*100.

[1] = percent of DMSO-treated control
[2] = Homo sapiens, 144 h, 6-day incubation, Alamar Blue, read-out: Compound EC50 (nM) ± StDev

Cc1c(Cn2c(C)nc3c(C(=O)O)cc(N4CCOCC4)cc32)cccc1C(F)(F)F [Example 31, 2-methyl-1-{[2-methyl-3-(trifluoromethyl)phenol]methyl}-6-(4-morpholinyl)-1H-benzimidazole-4-carboxylic acid]
Compound Ymin ± StDev (BT549): 52 ± 7 | Compound Ymin ± StDev (CHL-1; [1]): 82 ± 2 | EC50 (CHL-1; [2]): 14 ± 6 nM | EC50 (H4; 144 h, 6-day incubation, Alamar Blue, read-out: Compound EC50 (nM) ± StDev): 12 ± 8 nM | Compound Ymin ± StDev (H4; [1]): 55 ± 18 | Compound Ymin ± StDev (HCC1954; [1]): >80 | EC50 (HCC1954; [2]): > 30700 nM | EC50 (U251; Homo sapiens, U-251, 144 h, 6-day incubation, Alamar Blue, read-out: Compound EC50 (nM) ± StDev): 19000 ± 8620 nM | Compound Ymin ± StDev (U251; [1]): 80 ± 17 | EC50 (WM-115; [2]): 8 ± 3 nM | Compound Ymin ± StDev (WM-115; [1]): 54 ± 14 | EC50 (PC-3; [2]): 27 ± 12 nM | Compound Ymin ± StDev (PC-3; [1]): 82 ± 13 | Inhibition of the pharmacodynamic marker pAKT (pAKT/tAKT) (pAKT (pAKT/tAKT)): dose dependent inhibition
